Assay results reported in PMC11977230, “Coevolving residues distant from the ligand binding site are involved in GAF domain function” (Communications Chemistry, 2025).

Columns and labels:
GAFb domain of PDE2A = test system: GAFb domain of PDE2A; design: method as in PMID 15210692; settings: cGMP-binding GAFb domain of PDE2A; cited from earlier work
[1] = test system: isolated PDE5 GAFa domain; settings: cited from earlier work
[2] = target: T1, WT full-length PDE5A2 biosensor (GFP^2-PDE5A2-RLuc) (Homo sapiens, UniProt O76074); experiment: BRET-based full-length PDE5A2 conformational biosensor, cGMP dose-response (WT); assay type: biochemical
T1 construct: the GAFa domain (I159-N316) or the full-length PDE5A2, were flanked by the green fluorescent protein 2 (GFP^2); made in house; host or cells: HEK293T cells, transfected; cleared lysate used, not purified
Text: (§1) Having elucidated the impact of the L267A and F295A mutations in the isolated GAFa domain, we aimed to investigate their effect on the cGMP-binding induced conformational change in the full-length PDE5 protein. For this, we incorporated the mutations in our previously described BRET-based, full-length PDE5A2 biosensor (Fig. 5A) that reports a conformational change upon cGMP binding to the GAFa, but not the catalytic, domain in the protein[25].
(§2) The design of the BRET^2-based GAFa and full-length PDE5 (A2 isoform) biosensors was described previously[24],[25]. […]
(§3) All assays were performed at 37 °C in 96-well, white, flat-bottom plates. […] Bioluminescence spectra of the WT or the mutant biosensors were acquired over wavelengths ranging between 385 and 665 nm utilizing a grating-based system with 15 nm integration step size, with each individual measurement acquired for 1 s using a Tecan SPARK® multimode microplate reader (Tecan, Switzerland). BRET was determined as a ratio of GFP^2 and RLuc emission, either in the absence or in the presence of the indicated concentrations of cGMP, following a 30-min incubation at 37 °C. Bioluminescence and BRET were measured following the addition of the RLuc substrates, either coelenterazine 400a or Prolume purple (NanoLight Technology, Prolume Ltd., USA). […]

[3] = target: T2, L267A mutant PDE5 GAFa domain biosensor (Homo sapiens, UniProt O76074, L267A); experiment: BRET-based GAFa domain conformational biosensor, cGMP dose-response (L267A); assay type: biochemical; settings: 1 µM cGMP
T2 construct: made in house; host or cells: HEK293T cells, transfected; cleared lysate used, not purified
Text: (§4) Having observed alterations in the structural dynamics in the GAFa domain of PDE5 upon L267A and F295A mutations using MD simulations, we then proceeded to determine the impact of these mutations experimentally. […] (Fig. 4A). Broadly, these changes include a close juxtaposition of the sheet β3 and helix α4 leading to a “closing” of the cGMP binding site, an “inward” movement of sheet β1 and β2 towards the cGMP binding site and an “outward” movement of the loop β2/β3 (Fig. 4A, left panel). Additionally, cGMP binding is associated with a close juxtapositioning of helices α2 and α5 at the N- and C-termini of the GAFa domain, likely associated with the transduction of the allosteric signal from the GAFa domain to the catalytic domain in PDE5 (Fig. 4A, right panel). We decided to take advantage of the latter to monitor cGMP-binding induced conformational change in the GAFa domain through an increase in the BRET efficiency of the GAFa domain biosensor that we have described previously[24] (Fig. 4B). BRET is a biophysical technique that involves resonance energy transfer between a bioluminescent donor and a fluorescent acceptor, the extent of which is dependent on the spectral overlap, distance, and relative orientation between the two reporters. […]

[4] = target: L267A mutant full-length PDE5A2 biosensor (Homo sapiens, UniProt O76074, L267A); experiment: BRET-based full-length PDE5A2 conformational biosensor, cGMP dose-response (L267A); assay type: biochemical
Text: as §1, §2, §3

[5] = target: F295A mutant full-length PDE5A2 biosensor (Homo sapiens, UniProt O76074, F295A); experiment: BRET-based full-length PDE5A2 conformational biosensor, cGMP dose-response (F295A); assay type: biochemical
Text: as §1, §2, §3

[6] = target: T3, WT PDE5 GAFa domain biosensor (GFP^2-GAFa(I159-N316)-RLuc) (Homo sapiens, UniProt O76074); experiment: BRET-based GAFa domain conformational biosensor, cGMP dose-response (WT); assay type: biochemical
T3 construct: plasmids expressing the GAFa domain-based (GFP^2-GAFa(I159-N316)-RLuc); made in house; host or cells: HEK293T cells, transfected; cleared lysate used, not purified
Text: as §4

[7] = target: T4, F295A mutant PDE5 GAFa domain biosensor (Homo sapiens, UniProt O76074, F295A); experiment: BRET-based GAFa domain conformational biosensor, cGMP dose-response (F295A); assay type: biochemical; settings: 1 µM cGMP
T4 construct: made in house; host or cells: HEK293T cells, transfected; cleared lysate used, not purified
Text: as §4

[8] = 30 min incubation, mean ± S.D., three experiments, read-out: EC50 of cGMP-induced conformational change (decrease in BRET)

EC50 [2, 8]: 73 ± 20 nM
maximum BRET change ([2]; cGMP dose-response): -26.60 ± 3.42%
EC50 [4, 8]: 181 ± 30 nM
maximum BRET change ([4]; cGMP dose-response): −17.43 ± 1.31%
EC50 [5, 8]: 3400 ± 2100 nM
maximum BRET change ([5]; cGMP dose-response): −12.60 ± 2.37%
change in BRET in the presence of cGMP ([6]; 1 µM cGMP): increase in BRET
EC50 ([6]; read-out: EC50 of cGMP-induced conformational change (increase in BRET), HEK293T cell lysate, 30 min, 37 °C, mean ± S.D., four experiments): 19 ± 13 nM
SMILES: Nc1nc2c(ncn2[C@@H]2O[C@@H]3COP(=O)(O)O[C@H]3[C@H]2O)c(=O)[nH]1 [cGMP]
fold higher affinity for cGMP (GAFb domain of PDE2A): about 20 fold
affinity for cGMP ([1]; PDE5 GAFa domain): nanomolar affinity
higher affinity for cGMP compared to cAMP ([1]; isolated PDE5 GAFa domain): thousand-fold
change in BRET in the presence of cGMP [3]: neither the L267A nor the F295A mutant biosensors showed a discernible change in BRET
change in BRET in the presence of cGMP [7]: neither the L267A nor the F295A mutant biosensors showed a discernible change in BRET
